Laboratory results taken from patent US11510949B2, “Use of the treatment or improvement of sleep disorders by Lactobacillus brevis ProGA28 and/or its metabolites” (SYNGEN BIOTECH CO., LTD, priority 2019, dated 2022).

System: SHR rats
Assay: Sleep quality and quantity assessment in SHR rats after tube feeding (EEG/EMG sleep staging)
Format: in vivo
[1] = pure substance administered, FIG. 5

Experimental: The dosage of the test products used in the following examples is based on the daily human consumption of 8.3 mg/kg, and then according to the body surface area model coefficient of 6.2 to calculate the standard feeding dosage for rats being 52 mg/kg which is set as 1.0× dose given in the following examples.
The “sleep stage” called in the following examples includes the following three stages: awake (AW); quiet sleep (QS) which is equivalent to human non-rapid eye movement sleep (NREM) and paradoxical sleep (PS) which is equivalent to human rapid eye movement sleep (REM).
Frequency domain analysis of brain waves and myoelectric waves: each 16 seconds (1024 points) of brain wave signal acquisition is called a time window (or epoch), and is compared with 8 seconds before the next time window (50%) overlap for analysis. The fast Fourier transform is used to estimate the power spectral density and evaluate the activity of brain waves in different frequency bands. […]
Each test product was dissolved in drinking water and administered by tube feeding, the administration time was 1 hour before the light, and the physiological information of each group of rats was recorded at the beginning of the light, as a basis for sleep assessment.
In addition, pure gamma-aminobutyric acid was also administered to the SHR rats, and as described above, the physiological information of SHR rats was detected and recorded as a basis for sleep assessment.
The quality and quantity of sleep in the 24 hours after each test product was fed which was used as the range of sleep assessment:
The quantity of sleep: including the total time of sleep and wakefulness, the number of falling asleep and the average time of each sleep stage (duration) etc., and evaluate the quantity of sleep for each sleep stage; and the sleep of the group fed water is defined as 100%, used for comparing with the other groups fed test products to show the difference in each sleep stage.

## NCCCC(=O)O [pure y-aminobutyric acid, γ-aminobutyric acid]
Overall comparison of the figures, dose not specified
  quality and quantity of sleep: not helpful for the improvement
[1]
  sleep quality of rats: not helpful to increase the sleep quality
  sleep time: can not increase sleep time
